Assay results taken from BindingDB's records for doi:10.1007/s002100000327 (Leicester Royal Infirmary, 2001).
pKi: −log10 of the molar value.

Columns and labels:
Mu-type opioid receptor = Mu-type opioid receptor (Homo sapiens, UniProt P35372)
[1] = target: Kappa-type opioid receptor (Homo sapiens, UniProt P41145)
[2] = target: Delta-type opioid receptor (Homo sapiens, UniProt P41143)
Delta-type opioid receptor, sequence (P41143 whole entry): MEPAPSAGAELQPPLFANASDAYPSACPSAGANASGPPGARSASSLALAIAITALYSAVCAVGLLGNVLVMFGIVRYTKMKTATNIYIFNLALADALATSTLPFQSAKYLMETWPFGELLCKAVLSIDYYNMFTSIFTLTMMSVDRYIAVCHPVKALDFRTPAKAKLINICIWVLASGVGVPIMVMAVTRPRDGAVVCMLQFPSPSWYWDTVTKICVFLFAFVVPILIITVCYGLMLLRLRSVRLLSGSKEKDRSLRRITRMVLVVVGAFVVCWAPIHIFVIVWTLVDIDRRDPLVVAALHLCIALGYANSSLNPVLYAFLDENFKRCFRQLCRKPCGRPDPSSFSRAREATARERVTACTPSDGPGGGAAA

Mu-type opioid receptor, sequence (P35372 whole entry): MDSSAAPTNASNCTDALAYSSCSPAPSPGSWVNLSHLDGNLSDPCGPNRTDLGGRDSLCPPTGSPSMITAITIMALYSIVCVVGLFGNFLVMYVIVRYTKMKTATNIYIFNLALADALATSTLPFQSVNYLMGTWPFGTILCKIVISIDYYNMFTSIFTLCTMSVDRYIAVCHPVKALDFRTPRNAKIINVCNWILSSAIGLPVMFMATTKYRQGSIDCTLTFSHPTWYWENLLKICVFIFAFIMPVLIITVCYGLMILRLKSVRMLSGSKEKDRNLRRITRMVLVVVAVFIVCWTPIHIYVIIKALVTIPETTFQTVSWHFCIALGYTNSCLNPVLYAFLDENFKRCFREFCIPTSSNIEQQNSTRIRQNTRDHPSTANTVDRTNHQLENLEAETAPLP
Kappa-type opioid receptor, sequence (P41145 whole entry): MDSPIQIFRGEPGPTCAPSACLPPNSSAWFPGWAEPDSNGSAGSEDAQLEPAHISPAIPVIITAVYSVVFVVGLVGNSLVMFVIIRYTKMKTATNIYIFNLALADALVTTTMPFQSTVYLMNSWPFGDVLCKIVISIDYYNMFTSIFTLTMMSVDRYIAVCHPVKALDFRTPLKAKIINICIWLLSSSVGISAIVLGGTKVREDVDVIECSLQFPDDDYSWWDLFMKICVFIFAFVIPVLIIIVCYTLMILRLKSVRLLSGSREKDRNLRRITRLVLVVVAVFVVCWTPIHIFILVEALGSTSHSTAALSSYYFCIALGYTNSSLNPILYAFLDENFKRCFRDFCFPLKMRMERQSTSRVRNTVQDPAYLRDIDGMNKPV

SMILES | pKi (Mu-type opioid receptor) | pKi [1] | pKi [2]
CC(=O)N[C@@H](CCCN=C(N)N)C(=O)N[C@H](CC1CCCCC1)C(=O)N[C@H]1CC[C@@H]2SC[C@@H](C(=O)N[C@H](CCCN=C(N)N)C(=O)N[C@H](Cc3ccc(Cl)cc3)C(N)=O)N2C1=O [NOCICEPTIN RECEPTOR ANTAGONIST PEPTIDE III-BTD] | 8.05 | 7.94 | 7.22
C[C@H](NC(=O)CNC(=O)[C@@H](NC(=O)[C@H](Cc1ccccc1)NC(=O)CNC(=O)CNC(=O)CNCc1ccccc1)[C@@H](C)O)C(=O)N[C@@H](CCCN=C(N)N)C(=O)N[C@@H](CCCCN)C(=O)N[C@@H](CO)C(=O)N[C@@H](C)C(=O)N[C@@H](CCCN=C(N)N)C(=O)N[C@@H](CCCCN)C(N)=O [H-PHE-(R)-GLY-GLY-PHE-THR-GLY-ALA-ARG-LYS-SER-ALA-ARG-LYS-NH2] | < 5.00 | 5.96 | < 5.00
